Data taken from paper PMC6639057 (Investigational new drugs, 2018).
Where “and” joins values, the source holds several entries; their conditions need not be identical. Equal values may be shown once.

Test system: patients with advanced solid tumors
Assay: Adverse events
[1] = all patients, dose escalation and dose expansion (N = 105)
[2] = escalation 30 mg + G-CSF (n = 6)
[3] = escalation 35 mg + G-CSF (n = 3)

## Cc1csc(-c2nnc(Nc3ccc(Oc4ncccc4-c4ccnc(N)n4)cc3)c3ccccc23)c1 [AMG 900]
Total (N = 105)
  AEs leading to discontinuation of AMG 900: 25 (24) n (%)
  All treatment-emergent AEs: 105 (100) n (%)
  All treatment-related AEs: 98 (93) n (%)
  Fatal AEs: 5 (5) n (%)
  Grade ≥ 3 AEs: 79 (75) n (%)
  Grade ≥ 3 treatment-related AEs: 61 (58) n (%)
  Grade ≥ 3 treatment-related AEs: Anemia: 24 (23) n (%)
  Grade ≥ 3 treatment-related AEs: Diarrhea: 4 (4) n (%)
  Grade ≥ 3 treatment-related AEs: Fatigue: 5 (5) n (%)
  Grade ≥ 3 treatment-related AEs: Febrile neutropenia: 10 (10) n (%)
  Grade ≥ 3 treatment-related AEs: Hemoglobin decreased: 4 (4) n (%)
  Grade ≥ 3 treatment-related AEs: Leukopenia: 15 (14) n (%)
  Grade ≥ 3 treatment-related AEs: Lymphopenia: 4 (4) n (%)
  Grade ≥ 3 treatment-related AEs: Nausea: 3 (3) n (%)
  Grade ≥ 3 treatment-related AEs: Neutropenia: 44 (42) n (%)
  Grade ≥ 3 treatment-related AEs: Thrombocytopenia: 13 (12) n (%)
  Grade ≥ 3 treatment-related AEs: Vomiting: 2 (2) n (%)
  Grade ≥ 3 treatment-related AEs: White blood cell count decreased: 2 (2) n (%)
  Grade ≥ 4 AEs: 40 (38) n (%)
  Serious AEs: 39 (37) n (%)
All patients (13 patients)
  Treatment-related AEs that led to discontinuation of AMG 900: 12%
All patients (31 patients)
  Treatment-related grade ≥ 4 AEs: 30%
All patients (47 patients)
  Dose reductions or interruptions due to AEs: 45%
All patients (51 patients)
  Dose reductions or interruptions: 49%
All patients (61 patients)
  Treatment-related grade ≥ 3 AEs: 58%
All patients (five patients)
  Fatal AEs: 5%
All patients (n = 1)
  Grade ≥ 4 diarrhea (only nonhematologic grade ≥ 4 AE): 1%
All patients (n = 12)
  Treatment-related grade ≥ 4 leukopenia: 11%
All patients (n = 25), data cutoff December 31, 2014
  Discontinuation of AMG 900 due to AEs: 24%
All patients (n = 30)
  Treatment-related grade ≥ 4 neutropenia: 29%
[1]
  Grade ≥ 3 treatment-related anemia: 23%
  Grade ≥ 3 treatment-related leukopenia: 14%
  Grade ≥ 3 treatment-related neutropenia: 37% and 42%
  Grade ≥ 3 treatment-related thrombocytopenia: 12%
As judged by the investigator
  Relation of fatal AEs to treatment: none of the fatal AEs were considered treatment related
Escalation 16 mg (n = 3)
  AEs leading to discontinuation of AMG 900: 0 n (%)
  All treatment-emergent AEs: 3 (100) n (%)
  All treatment-related AEs: 3 (100) n (%)
  Fatal AEs: 0 n (%)
  Grade ≥ 3 AEs: 1 (33) n (%)
  Grade ≥ 3 treatment-related AEs: 1 (33) n (%)
  Grade ≥ 3 treatment-related AEs: Anemia: 1 (33) n (%)
  Grade ≥ 3 treatment-related AEs: Diarrhea: 0 n (%)
  Grade ≥ 3 treatment-related AEs: Fatigue: 0 n (%)
  Grade ≥ 3 treatment-related AEs: Febrile neutropenia: 0 n (%)
  Grade ≥ 3 treatment-related AEs: Hemoglobin decreased: 0 n (%)
  Grade ≥ 3 treatment-related AEs: Leukopenia: 1 (33) n (%)
  Grade ≥ 3 treatment-related AEs: Lymphopenia: 0 n (%)
  Grade ≥ 3 treatment-related AEs: Nausea: 0 n (%)
  Grade ≥ 3 treatment-related AEs: Neutropenia: 1 (33) n (%)
  Grade ≥ 3 treatment-related AEs: Thrombocytopenia: 0 n (%)
  Grade ≥ 3 treatment-related AEs: Vomiting: 0 n (%)
  Grade ≥ 3 treatment-related AEs: White blood cell count decreased: 0 n (%)
  Grade ≥ 4 AEs: 1 (33) n (%)
  Serious AEs: 0 n (%)
Escalation 24 mg (n = 6)
  AEs leading to discontinuation of AMG 900: 1 (17) n (%)
  All treatment-emergent AEs: 6 (100) n (%)
  All treatment-related AEs: 5 (83) n (%)
  Fatal AEs: 0 n (%)
  Grade ≥ 3 AEs: 5 (83) n (%)
  Grade ≥ 3 treatment-related AEs: 5 (83) n (%)
  Grade ≥ 3 treatment-related AEs: Anemia: 0 n (%)
  Grade ≥ 3 treatment-related AEs: Diarrhea: 0 n (%)
  Grade ≥ 3 treatment-related AEs: Fatigue: 0 n (%)
  Grade ≥ 3 treatment-related AEs: Febrile neutropenia: 0 n (%)
  Grade ≥ 3 treatment-related AEs: Hemoglobin decreased: 0 n (%)
  Grade ≥ 3 treatment-related AEs: Leukopenia: 2 (33) n (%)
  Grade ≥ 3 treatment-related AEs: Lymphopenia: 1 (17) n (%)
  Grade ≥ 3 treatment-related AEs: Nausea: 0 n (%)
  Grade ≥ 3 treatment-related AEs: Neutropenia: 4 (67) n (%)
  Grade ≥ 3 treatment-related AEs: Thrombocytopenia: 0 n (%)
  Grade ≥ 3 treatment-related AEs: Vomiting: 0 n (%)
  Grade ≥ 3 treatment-related AEs: White blood cell count decreased: 0 n (%)
  Grade ≥ 4 AEs: 3 (50) n (%)
  Serious AEs: 1 (17) n (%)
Escalation 25 mg (n = 7)
  AEs leading to discontinuation of AMG 900: 2 (29) n (%)
  All treatment-emergent AEs: 7 (100) n (%)
  All treatment-related AEs: 5 (71) n (%)
  Fatal AEs: 1 (14) n (%)
  Grade ≥ 3 AEs: 3 (43) n (%)
  Grade ≥ 3 treatment-related AEs: 2 (29) n (%)
  Grade ≥ 3 treatment-related AEs: Anemia: 2 (29) n (%)
  Grade ≥ 3 treatment-related AEs: Diarrhea: 0 n (%)
  Grade ≥ 3 treatment-related AEs: Fatigue: 0 n (%)
  Grade ≥ 3 treatment-related AEs: Febrile neutropenia: 0 n (%)
  Grade ≥ 3 treatment-related AEs: Hemoglobin decreased: 1 (14) n (%)
  Grade ≥ 3 treatment-related AEs: Leukopenia: 1 (14) n (%)
  Grade ≥ 3 treatment-related AEs: Lymphopenia: 0 n (%)
  Grade ≥ 3 treatment-related AEs: Nausea: 0 n (%)
  Grade ≥ 3 treatment-related AEs: Neutropenia: 1 (14) n (%)
  Grade ≥ 3 treatment-related AEs: Thrombocytopenia: 0 n (%)
  Grade ≥ 3 treatment-related AEs: Vomiting: 0 n (%)
  Grade ≥ 3 treatment-related AEs: White blood cell count decreased: 0 n (%)
  Grade ≥ 4 AEs: 2 (29) n (%)
  Serious AEs: 1 (14) n (%)
Escalation 30 mg (n = 6)
  AEs leading to discontinuation of AMG 900: 4 (67) n (%)
  All treatment-emergent AEs: 6 (100) n (%)
  All treatment-related AEs: 6 (100) n (%)
  Fatal AEs: 0 n (%)
  Grade ≥ 3 AEs: 6 (100) n (%)
  Grade ≥ 3 treatment-related AEs: 4 (67) n (%)
  Grade ≥ 3 treatment-related AEs: Anemia: 0 n (%)
  Grade ≥ 3 treatment-related AEs: Diarrhea: 0 n (%)
  Grade ≥ 3 treatment-related AEs: Fatigue: 0 n (%)
  Grade ≥ 3 treatment-related AEs: Febrile neutropenia: 0 n (%)
  Grade ≥ 3 treatment-related AEs: Hemoglobin decreased: 0 n (%)
  Grade ≥ 3 treatment-related AEs: Leukopenia: 3 (50) n (%)
  Grade ≥ 3 treatment-related AEs: Lymphopenia: 0 n (%)
  Grade ≥ 3 treatment-related AEs: Nausea: 0 n (%)
  Grade ≥ 3 treatment-related AEs: Neutropenia: 4 (67) n (%)
  Grade ≥ 3 treatment-related AEs: Thrombocytopenia: 1 (17) n (%)
  Grade ≥ 3 treatment-related AEs: Vomiting: 0 n (%)
  Grade ≥ 3 treatment-related AEs: White blood cell count decreased: 0 n (%)
  Grade ≥ 4 AEs: 6 (100) n (%)
  Serious AEs: 3 (50) n (%)
[2]
  AEs leading to discontinuation of AMG 900: 1 (17) n (%)
  All treatment-emergent AEs: 6 (100) n (%)
  All treatment-related AEs: 6 (100) n (%)
  Fatal AEs: 0 n (%)
  Grade ≥ 3 AEs: 5 (83) n (%)
  Grade ≥ 3 treatment-related AEs: 3 (50) n (%)
  Grade ≥ 3 treatment-related AEs: Anemia: 1 (17) n (%)
  Grade ≥ 3 treatment-related AEs: Diarrhea: 0 n (%)
  Grade ≥ 3 treatment-related AEs: Fatigue: 0 n (%)
  Grade ≥ 3 treatment-related AEs: Febrile neutropenia: 0 n (%)
  Grade ≥ 3 treatment-related AEs: Hemoglobin decreased: 0 n (%)
  Grade ≥ 3 treatment-related AEs: Leukopenia: 2 (33) n (%)
  Grade ≥ 3 treatment-related AEs: Lymphopenia: 0 n (%)
  Grade ≥ 3 treatment-related AEs: Nausea: 0 n (%)
  Grade ≥ 3 treatment-related AEs: Neutropenia: 3 (50) n (%)
  Grade ≥ 3 treatment-related AEs: Thrombocytopenia: 2 (33) n (%)
  Grade ≥ 3 treatment-related AEs: Vomiting: 0 n (%)
  Grade ≥ 3 treatment-related AEs: White blood cell count decreased: 0 n (%)
  Grade ≥ 4 AEs: 2 (33) n (%)
  Serious AEs: 3 (50) n (%)
[3]
  AEs leading to discontinuation of AMG 900: 0 n (%)
  All treatment-emergent AEs: 3 (100) n (%)
